The experiment concerns Meloidogyne incognita. Put plainly: Meloidogyne incognita test (MELGIN), sand, gall formation on salad seedlings after 14 days. Type of experiment: in vivo. As to conditions: application rate 20 ppm, 100% = no galls, 0% = galls equal to untreated control. On the procedure:
1. Meloidogyne incognita—test (MELGIN) [table] To produce a suitable preparation of active compound, 1 part by weight of active compound is mixed with the stated amount of solvent, and the concentrate is diluted with water to the desired concentration. Vessels are filled with sand, a solution of the active ingredient, a suspension containing eggs and larvae of the southern root-knot nematode (Meloidogyne incognita) and salad seeds. The salad seeds germinate and the seedlings grow. Galls develop in the roots. After 14 days the nematicidal activity is determined on the basis of the percentage of gall formation. 100% means no galls were found; 0% means the number of galls found on the roots of the treated plants was equal to that in untreated control plants.

Consider `N#Cc1cnn(Cc2ccc(Cl)c(S(=O)(=O)NC(=O)c3cn4cc(C(F)(F)F)cc(Cl)c4n3)c2)c1` [Ia-14, 8-chloro-N-({2-chloro-5-[(4-cyano-1H-pyrazol-1-yl)methyl]phenyl}sulfonyl)-6-(trifluoromethyl)imidazo[1,2-a]pyridine-2-carboxamide], for which the “nematicidal activity on the basis of the percentage of gall formation” value came to 100%.

For the origin of these results see US20160159805A1, “Heterocyclic sulfonylamino(thio)carbonyl-derivatives with nematicidal properties” (BAYER CROPSCIENCE AG, priority 2013, published 2016).
